≈ marks a conversion by molar mass, not a printed value.
Assays:
Erythrocyte [1] = assay: Hemolytic activity against RBC (unknown origin) at 100 ul after 4 hrs; assay type: ADME, cell-based; details: erythrocyte, 4 h
[2] = Therapeutic index, ratio of HC90 for hemolytic activity in human erythrocytes to MIC against Pseudomonas aeruginosa ATCC 27853; assay type: toxicity, cell-based; details: read-out: TI
[3] = system: Staphylococcus epidermidis; assay: Antibacterial activity against Staphylococcus epidermidis ATCC 12228 after 22 hrs by double dilution method; assay type: functional; details: ATCC 12228, 22 h
[4] = Therapeutic index, ratio of HC90 for hemolytic activity in human erythrocytes to MIC against Enterococcus faecalis ATCC 29212; assay type: toxicity, cell-based; details: read-out: TI
[5] = Therapeutic index, ratio of HC90 for hemolytic activity in human erythrocytes to MIC against Escherichia coli ATCC 25922; assay type: toxicity, cell-based; details: read-out: TI
Enterococcus faecalis [6] = assay: Antibacterial activity against Enterococcus faecalis ATCC 29212 after 22 hrs by double dilution method; assay type: functional; details: ATCC 29212, 22 h
Erythrocyte [7] = assay: Haemolytic activity in human RBC after 30 mins by spectrophotometric analysis; assay type: ADME, cell-based; details: 0.5 h
Escherichia coli [8] = assay: Antibacterial activity against Escherichia coli ATCC 25922 after 22 hrs by double dilution method; assay type: functional; details: ATCC 25922, 22 h
[9] = Therapeutic index, ratio of HC90 for hemolytic activity in human erythrocytes to MIC against Staphylococcus aureus ATCC 25923; assay type: toxicity, cell-based; details: read-out: TI
Pseudomonas aeruginosa [10] = assay: Antibacterial activity against Pseudomonas aeruginosa ATCC 27853 after 22 hrs by double dilution method; assay type: functional; details: ATCC 27853, 22 h
Staphylococcus aureus [11] = assay: Antibacterial activity against Staphylococcus aureus ATCC 25923 after 22 hrs by double dilution method; assay type: functional; details: ATCC 25923, 22 h
[12] = Therapeutic index, ratio of HC90 for hemolytic activity in human erythrocytes to MIC against Staphylococcus epidermidis ATCC 12228; assay type: toxicity, cell-based; details: read-out: TI
[13] = system: Staphylococcus epidermidis; assay: Antibacterial activity against Staphylococcus epidermidis ATCC 12228 after overnight incubation; assay type: functional
Escherichia coli [14] = assay: Antibacterial activity against Escherichia coli ATCC 25922 after overnight incubation; assay type: functional
Pseudomonas aeruginosa [15] = assay: Antibacterial activity against Pseudomonas aeruginosa ATCC 27853 after overnight incubation; assay type: functional
Bacillus cereus = assay: Antibacterial activity against Bacillus cereus ATCC 11778 after overnight incubation; assay type: functional
Staphylococcus aureus [16] = assay: Antibacterial activity against Staphylococcus aureus ATCC 29213 after overnight incubation; assay type: functional
Enterococcus faecalis [17] = assay: Antibacterial activity against Enterococcus faecalis ATCC 29212 after overnight incubation; assay type: functional

## CC(C)C[C@@H]1NC(=O)[C@H](CCCN)NC(=O)[C@H](C(C)C)NC(=O)[C@@H]2CCCN2C(=O)[C@@H](Cc2ccccc2)NC(=O)[C@H](CC(C)C)NC(=O)[C@H](CCCN)NC(=O)[C@H](C(C)C)NC(=O)[C@H]2CC[C@H](OCc3ccccc3)[C@@H](CNC1=O)O2
Erythrocyte [1]
  HD100: 500 µg/mL

## CCCCCCCC[C@H]1CC2C(C1)[C@@H]1SC[C@H]3C(=O)N[C@@H](C(C)C)C(=O)N[C@@H](CCCN)C(=O)N[C@@H](CC(C)C)C(=O)N[C@H](Cc4ccccc4)C(=O)N4CCC[C@H]4C(=O)N[C@@H](C(C)C)C(=O)N[C@H](CCCN)C(=O)N[C@@H](CC(C)C)C(=O)N[C@H]2C(=O)N31 (stereo partly drawn)
[2]
  selectivity ratio: 0.3
[3]
  MIC: 4 µg/mL (≈ 3.21 µM)
[4]
  selectivity ratio: 4.75
[5]
  selectivity ratio: 0.59
Enterococcus faecalis [6]
  MIC: 8 µg/mL (≈ 6.41 µM)
Erythrocyte [7]
  HC90: 38 µg/mL
Escherichia coli [8]
  MIC: 64 µg/mL (≈ 51.3 µM)
[9]
  selectivity ratio: 9.5
Pseudomonas aeruginosa [10]
  MIC: 128 µg/mL (≈ 103 µM)
Staphylococcus aureus [11]
  MIC: 4 µg/mL (≈ 3.21 µM)
[12]
  selectivity ratio: 9.5

## CC(C)C[C@@H]1NC(=O)[C@H](CCCN)NC(=O)[C@H](C(C)C)NC(=O)[C@@H]2CCCN2C(=O)[C@@H](Cc2ccccc2)NC(=O)[C@H](CC(C)C)NC(=O)[C@H](CCCN)NC(=O)[C@H](C(C)C)NC(=O)[C@@H]2O[C@H](CNC1=O)[C@@H](OCc1ccc3ccccc3c1)[C@@H]2O
[13]
  MIC: 2 µg/mL (≈ 1.67 µM)
Escherichia coli [14]
  MIC: > 64 µg/mL
Pseudomonas aeruginosa [15]
  MIC: > 64 µg/mL
Bacillus cereus
  MIC: 4 µg/mL (≈ 3.34 µM)
Staphylococcus aureus [16]
  MIC: 4 to 8 µg/mL (≈ 3.34 to 6.69 µM)
Enterococcus faecalis [17]
  MIC: 8 µg/mL (≈ 6.69 µM)

Source: ChEMBL document CHEMBL4376803, “Recent Advances in the Exploration of Therapeutic Analogues of Gramicidin S, an Old but Still Potent Antimicrobial Peptide” (J Med Chem, 2019)
